Reference: patent US20050032873A1, “3-Amino chroman and 2-amino tetralin derivatives” (Wyeth, priority 2003, published 2005)
pEC50, pIC50, pKi: −log10 of the molar value. Like-named read-outs stand apart in the source and are kept apart here.

What was measured:
serotonin transporter = biological target: T1, serotonin transporter (Rattus norvegicus, UniProt P31652); experiment: 5-HT transporter affinity: displacement of 3H-paroxetine from male rat cortical membranes; assay type: binding; settings: displacement of 3H-paroxetine; male rat cortical membranes; read-out: 5-HT Transporter Affinity Ki
T1 construct: displace ^3H-paroxetine from male rat cortical membranes; from tissue; host or cells: male rat cortical membranes
T1 sequence (P31652 whole entry): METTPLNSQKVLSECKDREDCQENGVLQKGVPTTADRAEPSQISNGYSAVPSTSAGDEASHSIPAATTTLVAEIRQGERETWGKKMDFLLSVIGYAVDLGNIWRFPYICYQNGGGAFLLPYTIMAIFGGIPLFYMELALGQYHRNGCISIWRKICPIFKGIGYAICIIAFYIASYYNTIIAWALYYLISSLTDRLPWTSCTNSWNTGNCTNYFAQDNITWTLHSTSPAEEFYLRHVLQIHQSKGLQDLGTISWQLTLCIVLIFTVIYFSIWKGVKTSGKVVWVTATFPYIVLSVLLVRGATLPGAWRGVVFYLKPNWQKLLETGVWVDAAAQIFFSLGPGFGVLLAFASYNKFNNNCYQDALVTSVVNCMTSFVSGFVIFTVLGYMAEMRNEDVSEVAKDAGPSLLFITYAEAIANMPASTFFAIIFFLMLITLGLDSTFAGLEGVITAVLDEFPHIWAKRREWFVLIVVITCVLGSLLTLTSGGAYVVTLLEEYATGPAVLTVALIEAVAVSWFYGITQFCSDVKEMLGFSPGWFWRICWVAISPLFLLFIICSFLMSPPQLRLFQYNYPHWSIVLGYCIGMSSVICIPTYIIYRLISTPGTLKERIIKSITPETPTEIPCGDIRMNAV

[1] = biological target: T2, cloned human 5-HT1A receptors (Homo sapiens, UniProt P08908); experiment: 35S-GTPγS binding assay, 5-HT1A function; assay type: biochemical; settings: for pIC50: antagonist potency, reversal of 8-OH-DPAT, read-out: 5-HT1A Function GTPγS IC50; for pEC50: agonist potency
T2 construct: expressed in transfected cells
T2 sequence (P08908 1-422): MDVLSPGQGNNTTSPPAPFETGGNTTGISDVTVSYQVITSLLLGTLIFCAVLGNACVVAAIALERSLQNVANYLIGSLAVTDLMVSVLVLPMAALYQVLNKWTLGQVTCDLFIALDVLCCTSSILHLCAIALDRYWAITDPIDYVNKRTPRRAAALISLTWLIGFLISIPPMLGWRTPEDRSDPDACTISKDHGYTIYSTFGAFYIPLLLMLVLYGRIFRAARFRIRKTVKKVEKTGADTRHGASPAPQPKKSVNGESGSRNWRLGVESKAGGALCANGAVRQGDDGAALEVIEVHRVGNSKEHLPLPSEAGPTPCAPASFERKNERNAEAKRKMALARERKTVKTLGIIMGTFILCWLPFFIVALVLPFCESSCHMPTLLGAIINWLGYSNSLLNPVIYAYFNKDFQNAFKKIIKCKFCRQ
Description: The agonist or antagonist activity at 5-HT1A receptors was established by using two different assays. […] Agonists produce an increase in binding whereas antagonists produce no increase but rather reverse the effects of the standard agonist 8-OH-DPAT. The test compound's maximum stimulatory effect is represented as the Emax, while its potency is defined by the EC50. The test compound's maximum inhibitory effect is represented as the Imax, while its potency is defined by the IC50. The second assay measured cAMP accumulation upon binding of the ligand to the 5-HT1A receptor. […] The test compound's maximum stimulatory or inhibitory effect is represented as the Emax while its potency is defined by either IC50 for an antagonist or EC50 for an agonist. [^3H]-8-OH-DPAT was used to determine maximum agonist or antagonist response in both functional assays.

5-HT1A receptor [2] = biological target: T3, 5-HT1A receptor (Homo sapiens, UniProt P08908); experiment: 5-HT1A receptor affinity: displacement of [3H] 8-OH-DPAT; assay type: binding; design: expressed in transfected cells; settings: displacement of [3H] 8-OH-DPAT; CHO cells stably transfected with human 5-HT1A receptors; read-out: 5-HT1A Receptor Affinity Ki
T3 sequence (P08908 1-422): T2 sequence (P08908 1-422)

5-HT1A receptor [3] = biological target: T3, 5-HT1A receptor; experiment: cAMP accumulation assay, 5-HT1A function; assay type: cell-based; settings: for pIC50: cells marked IC50 (antagonist), read-out: 5-HT1A Function cAMP IC50; for Emax: in brackets after EC50 or IC50, read-out: 5-HT1A Function cAMP (Emax); for pEC50: cells marked EC50 (agonist)
[4] = maximum inhibitory effect, in brackets after IC50, read-out: 5-HT1A Function GTPγS (Imax)
[5] = maximum inhibitory effect, in brackets after IC50
[6] = maximum stimulatory effect, in brackets after EC50, read-out: 5-HT1A Function GTPγS (Emax)

pEC50 [1] | Emax [1, 6] | pEC50 (5-HT1A receptor [3]) | Structure (SMILES) | pKi (serotonin transporter) | pIC50 [1] | Emax [1, 4] | pKi (5-HT1A receptor [2]) | pIC50 (5-HT1A receptor [3]) | Emax (5-HT1A receptor [3]) | 5-HT1A Function GTPγS (Imax) [1, 5]
– | – | – | CCN(CC1CCc2[nH]c3ccc(F)cc3c2C1)[C@H]1COc2c(F)ccc(C(N)=O)c2C1 (single isomer, unassigned; (-)) [Compound 176a] | 6.21 | 5.37 | 92% | 6.41 | 6.06 | 0% | –
– | – | – | CCCN(CC1CCc2[nH]c3ccc(F)cc3c2C1)[C@H]1COc2c(F)ccc(C(N)=O)c2C1 (single isomer, unassigned; (-)) [Compound 177a] | 5.28 | 5.53 | – | 7.22 | 6.08 | 0% | 100%
– | – | – | NC(=O)c1ccc(F)c2c1C[C@@H](N(CC1CC1)CC1CCc3[nH]c4ccc(F)cc4c3C1)CO2 (single isomer, unassigned; (-)) [Compound 178a] | 6.46 | 5.08 | 100% | 6.93 | 5.90 | 0% | –
– | – | – | NC(=O)c1ccc(F)c2c1C[C@@H](NCC1CCc3c([nH]c4ccc(F)cc34)C1)CO2 (single isomer, unassigned; (-)) [Compound 179b] | 7.07 | 5.22 | – | 7.62 | 6.02 | 0% | 100%
– | – | – | NC(=O)c1ccc(Cl)c2c1CC(N(CCCc1c[nH]c3ccc(F)cc13)C1CCC1)CO2 (centres unmarked) [Compound 7, 8-chloro-3-{cyclobutyl[3-(5-fluoro-1H-indol-3-yl)propyl]amino}chromane-5-carboxamide] | 8.49 | 5.78 | 100% | 8.21 | 7.22 | 0% | –
– | – | – | NC(=O)c1ccc(F)c2c1CC(N(CCC(=O)c1c[nH]c3ccc(F)cc13)C1CCC1)CO2 (centres unmarked) [Compound 8, 3-{cyclobutyl[3-(5-fluoro-1H-indol-3-yl)-3-oxopropyl]amino}-8-fluorochromane-5-carboxamide] | 6.59 | 5.86 | 100% | 6.99 | 6.32 | 0% | –
7.52 | 85% | 7.79 | COC(=O)c1ccc(F)c2c1CC(NCCCc1c[nH]c3ccc(F)cc13)CO2 (centres unmarked) [Compound 10, Methyl 8-fluoro-3-{[3-(5-fluoro-1H-indol-3-yl)propyl]amino}chromane-5-carboxylate] | 7.96 | – | – | 8.20 | – | 70.5% | –
– | – | – | COC(=O)c1ccc(F)c2c1CC(N(CCCc1c[nH]c3ccc(F)cc13)C1CCC1)CO2 (centres unmarked) [Compound 11, Methyl 3-{cyclobutyl[3-(5-fluoro-1H-indol-3-yl)propyl]amino}-8-fluorochromane-5-carboxylate] | 6.79 | 6.46 | 62% | 7.13 | 6.39 | 0% | –
7.03 | 42% | 7.12 | CCCN(CCC(O)c1csc2ccc(F)cc12)C1COc2c(F)ccc(C(N)=O)c2C1 (centres unmarked) [Compound 17, 8-fluoro-3-[[3-(5-fluoro-1-benzothien-3-yl)-3-hydroxypropyl](propyl)amino]chromane-5-carboxamide] | 6.80 | – | – | 9.06 | – | 74.5% | –
6.63 | 100% | 7.96 | CCN(CCCc1csc2ccccc12)C1COc2cccc(OC)c2C1 (centres unmarked) [Compound 18, N-[3-(1-benzothien-3-yl)propyl]-N-ethyl-5-methoxychroman-3-amine] | 6.90 | – | – | 8.43 | – | 93.5% | –
6.50 | 100% | 7.09 | CCCN(CCCc1csc2ccc(F)cc12)C1COc2cccc(OC)c2C1 (centres unmarked) [Compound 19, N-[3-(5-fluoro-1-benzothien-3-yl)propyl]-5-methoxy-N-propylchroman-3-amine] | 6.39 | – | – | 7.79 | – | 86.5% | –
7.45 | 84% | 7.21 | CCCN(CCCc1coc2ccccc12)C1COc2c(F)ccc(C(N)=O)c2C1 (centres unmarked) [Compound 20, 3-[[3-(1-benzofuran-3-yl)propyl](propyl)amino]-8-fluorochromane-5-carboxamide] | 6.24 | – | – | 9.43 | – | 88% | –
7.55 | 98.5% | 8.02 | CCN(CCCc1coc2ccccc12)C1COc2cccc(OC)c2C1 (centres unmarked) [Compound 21, N-[3-(1-benzofuran-3-yl)propyl]-N-ethyl-5-methoxychroman-3-amine] | 6.51 | – | – | 9.42 | – | 90.5% | –
6.65 | 82% | 7.51 | CCN(CCCCc1coc2ccccc12)C1COc2cccc(OC)c2C1 (centres unmarked) [Compound 22, N-[4-(1-benzofuran-3-yl)butyl]-N-ethyl-N-(5-methoxy-3,4-dihydro-2H-chromen-3-yl)amine] | 7.45 | 5.93 | 31% | 8.32 | – | 100% | –
7.02 | 83% | 7.56 | CCCN(CCCCc1c[nH]c2ccc(F)cc12)C1COc2cccc(OC)c2C1 (centres unmarked) [Compound 30, N-[4-(5-fluoro-1H-indol-3-yl)butyl]-5-methoxy-N-propylchroman-3-amine] | 7.90 | – | – | 8.44 | – | 94% | –
6.91 | 100% | 7.07 | CCN(CCCCc1c[nH]c2ccc(F)cc12)C1COc2cccc(OC)c2C1 (centres unmarked) [Compound 32, N-ethyl-N-[4-(5-fluoro-1H-indol-3-yl)butyl]-5-methoxychroman-3-amine] | 8.96 | – | – | 8.56 | – | 95% | –

Structure (SMILES) | pEC50 [1] | Emax [1, 6] | pEC50 (5-HT1A receptor [3]) | pKi (serotonin transporter) | pIC50 [1] | Emax [1, 4] | pKi (5-HT1A receptor [2]) | pIC50 (5-HT1A receptor [3]) | Emax (5-HT1A receptor [3]) | 5-HT1A Function GTPγS (Imax) [1, 5]
NC(=O)c1ccc(F)c2c1CC(NCCCc1c[nH]c3ccc(F)cc13)CO2 (centres unmarked) [Compound 1, 8-fluoro-3-{[3-(5-fluoro-1H-indol-3-yl)propyl]amino}chromane-5-carboxamide] | 5.30 | 100% | 6.64 | 8.15 | – | – | 6.67 | – | 79.5% | –
CCCN(CCCc1c[nH]c2ccc(F)cc12)C1COc2c(F)ccc(C(N)=O)c2C1 (centres unmarked) [Compound 2, 8-fluoro-3-{[3-(5-fluoro-1H-indol-3-yl)propyl](propyl)amino}chromane-5-carboxamide] | 6.77 | 77% | 7.98 | 8.22 | – | – | 8.53 | – | 83.5% | –
CCCN(CCCc1c[nH]c2ccc(F)cc12)C1COc2cccc(OC)c2C1 (centres unmarked) [Compound 23, [3-(5-fluoro-1H-indol-3-yl)propyl]-N-(5-methoxy-chroman-3-yl)propylamine] | 7.00 | 100% | 7.41 | 8.05 | – | – | 7.80 | – | 80.5% | –
CCCN(CCCc1c[nH]c2ccc(F)cc12)[C@@H]1COc2c(F)ccc(OC)c2C1 [Compound 27, (3S)-8-fluoro-N-[3-(5-fluoro-1H-indol-3-yl)propyl]-5-methoxy-N-propylchroman-3-amine] | 6.93 | 97% | 7.79 | 7.87 | – | – | 7.90 | – | 88.5% | –
CCCN(CCCc1c[nH]c2ccc(F)cc12)[C@H]1COc2c(F)ccc(OC)c2C1 [Compound 28, (3R)-8-fluoro-N-[3-(5-fluoro-1H-indol-3-yl)propyl]-5-methoxy-N-propylchroman-3-amine] | 6.78 | 88% | 7.44 | 7.76 | – | – | 7.96 | – | 86% | –
CCCN(CCc1c[nH]c2ccc(F)cc12)C1COc2cccc(OC)c2C1 (centres unmarked) [Compound 29, N-[2-(5-fluoro-1H-indol-3-yl)ethyl]-5-methoxy-N-propylchroman-3-amine] | 6.69 | 70% | 7.11 | 7.57 | – | – | 8.14 | – | 99% | –
CCN(CCCc1c[nH]c2ccc(F)cc12)C1COc2cccc(OC)c2C1 (centres unmarked) [Compound 31, N-ethyl-N-[3-(5-fluoro-1H-indol-3-yl)propyl]-5-methoxychroman-3-amine] | 7.27 | 99% | 7.58 | 8.66 | – | – | 8.63 | – | 96% | –
COc1cccc2c1CC(N(C)CCCc1c[nH]c3ccc(F)cc13)CO2 (centres unmarked) [Compound 33, N-[3-(5-fluoro-1H-indol-3-yl)propyl]-5-methoxy-N-methylchroman-3-amine] | 8.44 | 69% | 7.02 | 8.17 | – | – | 7.40 | – | 91% | –
